Measurements from US9139587B2, “N1-pyrazolospiroketone acetyl-CoA carboxylase inhibitors” (Pfizer Inc., priority 2009, dated 2015).

Key:
[1] = biological target: T1, recombinant human ACC2 (rhACC2) (Homo sapiens, UniProt O00763, V2141I); assay: recombinant hACC2 Transcreener assay (direct inhibition of ACC2 activity); format: biochemical; conditions: Transcreener ADP detection FP assay, 50 μM ATP, 30 μM acetyl-CoA, 50 min at 25° C.
T1 construct: a full length Cytomax clone of ACC2 was purchased from Cambridge Bioscience Limited; made in house; host or cells: CHO cells (tetracycline-induced, pcDNA5 FRT TO-TOPO)
Description: For example direct inhibition of ACC activity, for the compound of Formula (1) was determined using preparations of recombinant human ACC1 (rhACC1) and recombinant human ACC2 (rhACC2). Representative sequences of the recombinant human ACC1 and ACC2 that can be used in the assay are provided in FIG. 1 (SEQ ID NO. 1) and FIG. 2 (SEQ. ID NO. 2), respectively.
[3] Preparation of rhACC2. Human ACC2 inhibition was measured using purified recombinant human ACC2 (hrACC2). Briefly, a full length Cytomax clone of ACC2 was purchased from Cambridge Bioscience Limited and was sequenced and subcloned into PcDNA5 FRT TO-TOPO (Invitrogen, Carlsbad, Calif.). The ACC2 was expressed in CHO cells by tetracycline induction and harvested in 5 liters of DMEM/F12 with glutamine, biotin, hygromycin and blasticidin with 1 μg/mL tetracycline (Invitrogen, Carlsbad, Calif.). The conditioned medium containing ACC2 was then applied to a Softlink Soft Release Avidin column (Promega, Madison, Wis.) and eluted with 5 mM biotin. 4 mgs of ACC2 were eluted at a concentration of 0.05 mg/mL (determined by A280) with an estimated purity of 95% ([…]). The purified ACC2 was dialyzed in 50 mM Tris, 200 mM NaCl, 4 mM DTT, 2 mM EDTA, and 5% glycerol. The pooled protein was frozen and stored at −80° C., with no loss of activity upon thawing. For measurement of ACC2 activity and assessment of ACC2 inhibition, test compounds were dissolved in DMSO and added to the rhACC2 enzyme as a 5× stock with a final DMSO concentration of 1%.
[4] Measurement of human ACC2 inhibition. hACC2 was assayed in a Costar #3676 (Costar, Cambridge, Mass.) 384-well plate using the Transcreener ADP detection FP assay kit (Bellbrook Labs, Madison, Wisconsin) using the manufacturer's recommended conditions for a 50 uM ATP reaction. The final conditions for the assay were 50 mM HEPES, pH 7.2, 5 mM MgCl2, 5 mM tripotassium citrate, 2 mM DTT, 0.1 mg/mL BSA, 30 μM acetyl-CoA, 50 μM ATP, and 8 mM KHCO3 Typically, a 10 μl reaction was run for 50 min at 25° C., and 10 μl of Transcreener stop and detect buffer was added and the combination incubated at room temp for an additional 1 hour. The data was acquired on an Envision Fluorescence reader (Perkinelmer) using a 620 excitation Cy5 FP general dual mirror, 620 excitation Cy5 FP filter, 688 emission (S) and a 688 (P) emission filter.

[2] = biological target: T2, recombinant human ACC1 (rhACC1) (Homo sapiens, UniProt Q13085, DEL44-44); assay: recombinant hACC1 Transcreener assay (direct inhibition of ACC1 activity); format: biochemical; conditions: Transcreener ADP detection FP assay, 50 μM ATP, 30 μM acetyl-CoA, 120 min at 25° C.
T2 construct: recombinant baculovirus containing full length human ACC1 cDNA; made in house; host or cells: SF9 insect cells (baculovirus)
Description: For example direct inhibition of ACC activity, for the compound of Formula (1) was determined using preparations of recombinant human ACC1 (rhACC1) and recombinant human ACC2 (rhACC2). Representative sequences of the recombinant human ACC1 and ACC2 that can be used in the assay are provided in FIG. 1 (SEQ ID NO. 1) and FIG. 2 (SEQ. ID NO. 2), respectively. Preparation of rhACC1. Two liters of SF9 cells, infected with recombinant baculovirus containing full length human ACC1 cDNA, were suspended in ice-cold lysis buffer (25 mM Tris, pH 7.5; 150 mM NaCl; 10% glycerol; 5 mM imidazole (EMD Bioscience; Gibbstown, N.J.); 2 mM TCEP (BioVectra; Charlottetown, Canada); Benzonase nuclease (10000 U/100 g cell paste; Novagen; Madison, Wis.); EDTA-free protease inhibitor cocktail (1 tab/50 mL; Roche Diagnostics; Mannheim, Germany). Cells were lysed by 3 cycles of freeze-thaw and centrifuged at 40,000×g for 40 minutes (4° C.). Supernatant was directly loaded onto a HisTrap FF crude column (GE Healthcare; Piscataway, N.J.) and eluted with an imidazole gradient up to 0.5 M over 20 column volumes (CV). ACC1-containing fractions were pooled and diluted 1:5 with 25 mM Tris, pH 7.5, 2 mM TCEP, 10% glycerol and direct loaded onto a CaptoQ (GE Healthcare) column and eluted with an NaCl gradient up to 1 M over 20 CV's. Phosphate groups were removed from purified ACC1 by incubation with lambda phosphatase (100 U/10 μM target protein; New England Biolabs; Beverly, Mass.) for 14 hours at 4° C.; okadaic acid was added (1 μM final concentration; Roche Diagnostics) to inhibit the phosphatase. Purified ACC1 was exchanged into 25 mM Tris, pH 7.5, 2 mM TCEP, 10% glycerol, 0.5 M NaCl by 6 hour dialysis at 4° C. Aliquots were prepared and frozen at −80° C. […] The final conditions for the assay were 50 mM HEPES, pH 7.2, 10 mM MgCl2, 7.5 mM tripotassium citrate, 2 mM DTT, 0.1 mg/mL BSA, 30 μM acetyl-CoA, 50 μM ATP, and 10 mM KHCO3 Typically, a 10 μl reaction was run for 120 min at 25° C., and 10 μl of Transcreener stop and detect buffer was added and the combination incubated at room temp for an additional 1 hour. The data was acquired on a Envision Fluorescence reader (Perkinelmer) using a 620 excitation Cy5 FP general dual mirror, 620 excitation Cy5 FP filter, 688 emission (S) and a 688 (P) emission filter.

T1 sequence (O00763 whole entry V2141I): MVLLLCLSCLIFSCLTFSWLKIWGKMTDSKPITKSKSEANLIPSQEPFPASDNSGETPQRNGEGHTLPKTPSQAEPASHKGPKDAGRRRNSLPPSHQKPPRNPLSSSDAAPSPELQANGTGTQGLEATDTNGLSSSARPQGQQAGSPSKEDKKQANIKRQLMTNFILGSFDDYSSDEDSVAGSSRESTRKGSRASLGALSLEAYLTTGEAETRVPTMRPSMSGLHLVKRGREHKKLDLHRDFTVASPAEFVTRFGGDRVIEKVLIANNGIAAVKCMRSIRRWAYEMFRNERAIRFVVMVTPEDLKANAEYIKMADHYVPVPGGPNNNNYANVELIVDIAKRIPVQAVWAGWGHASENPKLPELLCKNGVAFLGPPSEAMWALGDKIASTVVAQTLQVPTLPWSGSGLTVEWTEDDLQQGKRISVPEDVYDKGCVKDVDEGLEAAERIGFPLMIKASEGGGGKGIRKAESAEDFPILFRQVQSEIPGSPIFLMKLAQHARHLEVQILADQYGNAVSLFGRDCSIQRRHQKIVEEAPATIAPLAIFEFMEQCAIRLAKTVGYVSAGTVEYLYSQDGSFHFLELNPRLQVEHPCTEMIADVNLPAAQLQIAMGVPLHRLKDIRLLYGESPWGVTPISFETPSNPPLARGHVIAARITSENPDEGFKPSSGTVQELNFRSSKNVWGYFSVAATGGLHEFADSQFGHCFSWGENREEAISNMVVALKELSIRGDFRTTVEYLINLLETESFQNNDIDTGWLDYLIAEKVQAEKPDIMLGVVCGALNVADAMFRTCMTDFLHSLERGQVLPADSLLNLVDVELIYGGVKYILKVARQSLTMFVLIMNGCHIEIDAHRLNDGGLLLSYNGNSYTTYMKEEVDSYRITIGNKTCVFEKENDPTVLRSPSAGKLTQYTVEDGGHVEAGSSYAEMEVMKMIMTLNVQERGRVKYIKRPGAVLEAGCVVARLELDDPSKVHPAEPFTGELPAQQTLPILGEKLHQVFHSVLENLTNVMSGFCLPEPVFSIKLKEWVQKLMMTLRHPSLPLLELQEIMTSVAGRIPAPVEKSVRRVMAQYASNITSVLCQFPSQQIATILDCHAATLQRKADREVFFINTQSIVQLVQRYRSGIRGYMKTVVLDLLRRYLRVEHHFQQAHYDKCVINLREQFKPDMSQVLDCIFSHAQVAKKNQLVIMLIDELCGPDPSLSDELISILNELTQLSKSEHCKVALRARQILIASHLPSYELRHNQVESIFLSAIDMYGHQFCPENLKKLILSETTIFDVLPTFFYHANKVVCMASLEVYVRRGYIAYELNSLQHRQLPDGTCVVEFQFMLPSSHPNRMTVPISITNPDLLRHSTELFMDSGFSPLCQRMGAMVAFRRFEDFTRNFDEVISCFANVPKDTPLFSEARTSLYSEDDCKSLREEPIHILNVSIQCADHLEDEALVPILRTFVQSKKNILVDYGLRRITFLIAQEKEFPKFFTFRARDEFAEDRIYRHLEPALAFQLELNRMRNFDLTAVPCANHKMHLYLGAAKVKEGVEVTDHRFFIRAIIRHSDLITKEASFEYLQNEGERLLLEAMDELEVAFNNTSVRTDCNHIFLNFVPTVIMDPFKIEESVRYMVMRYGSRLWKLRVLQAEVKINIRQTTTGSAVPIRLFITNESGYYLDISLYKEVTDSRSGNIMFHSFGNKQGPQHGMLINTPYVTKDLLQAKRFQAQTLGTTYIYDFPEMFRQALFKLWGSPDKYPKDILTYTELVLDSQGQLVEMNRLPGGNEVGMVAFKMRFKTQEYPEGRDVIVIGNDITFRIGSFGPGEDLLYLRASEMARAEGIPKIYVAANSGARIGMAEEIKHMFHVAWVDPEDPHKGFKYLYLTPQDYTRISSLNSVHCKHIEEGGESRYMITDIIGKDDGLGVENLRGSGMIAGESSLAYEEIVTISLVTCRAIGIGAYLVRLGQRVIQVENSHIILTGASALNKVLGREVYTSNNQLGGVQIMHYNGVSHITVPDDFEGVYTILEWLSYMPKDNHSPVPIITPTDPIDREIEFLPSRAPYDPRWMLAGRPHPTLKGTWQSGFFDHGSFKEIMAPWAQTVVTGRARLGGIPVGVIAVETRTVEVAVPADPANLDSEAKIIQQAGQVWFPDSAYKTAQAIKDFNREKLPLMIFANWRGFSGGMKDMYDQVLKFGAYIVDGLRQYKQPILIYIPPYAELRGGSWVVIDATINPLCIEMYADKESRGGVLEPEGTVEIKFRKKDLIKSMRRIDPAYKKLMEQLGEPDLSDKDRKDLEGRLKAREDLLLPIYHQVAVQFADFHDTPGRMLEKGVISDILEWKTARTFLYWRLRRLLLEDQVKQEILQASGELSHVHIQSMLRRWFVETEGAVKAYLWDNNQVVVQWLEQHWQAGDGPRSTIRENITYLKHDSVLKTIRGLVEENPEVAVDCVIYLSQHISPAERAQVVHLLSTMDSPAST

Row | IC50 [1] [nM] | IC50 [2] [nM] | Structure (SMILES)
1 | 3760 | 9790 | CC(C)n1ncc2c1C(=O)CC1(CCN(C(=O)c3c(O)cnc4ccccc34)CC1)C2 [Example 2A-70]
2 | 387 | 1060 | CC(C)n1ncc2c1C(=O)CC1(CCN(C(=O)c3c[nH]c4ncccc34)CC1)C2 [Example 2A-71]
3 | 290 | 599 | CC(C)n1ncc2c1C(=O)CC1(CCN(C(=O)c3ccc4cnccc4c3O)CC1)C2 [Example 2A-72]
4 | 37.7 | 113 | Cc1nn(C(C)C)c2c1CC1(CCN(C(=O)c3ccc4[nH]ncc4c3)CC1)CC2=O [Example 2A-75]
5 | 1500 | 6620 | CC(C)n1nc(C#N)c2c1C(=O)CC1(CCN(C(=O)c3ccc4[nH]ncc4c3)CC1)C2 [Example 2A-76]
6 | 1300 | 6160 | CC(C)(C)n1nc(C#N)c2c1C(=O)CC1(CCN(C(=O)c3ccc4[nH]ncc4c3)CC1)C2 [Example 2A-77]
7 | 1270 | 3840 | CC(C)(C)n1nc(C#N)c2c1C(=O)CC1(CCN(C(=O)c3ccc4[nH]ncc4c3)CC1)C2 [Example 2A-78]
8 | 48.6 | 96.1 | Cc1nc2ccc(C(=O)N3CCC4(CC3)CC(=O)c3c(cnn3C(C)C)C4)cc2[nH]1 [Example 3A-1, 1-isopropyl-1′-(2-methyl-1H-benzo[d]imidazole-5-carbonyl)-4,6-dihydrospiro[indazole-5,4′-piperidin]-7(1H)-one]
9 | 373 | 1530 | CC(C)n1ncc2c1C(=O)C(C)(C)C1(CCN(C(=O)c3ccc4[nH]ncc4c3)CC1)C2 [Example 6A-1, 1′-(1H-indazole-5-carbonyl)-1-isopropyl-6,6-dimethyl-4,6-dihydrospiro[indazole-5,4′-piperidin]-7(1H)-one]
10 | 39.8 | 63.2 | Cc1nn(C(C)C)c2c1CC1(CCN(C(=O)c3ccc4[nH]cnc4c3)CC1)CC2=O [Example 7A-1, 1′-(1H-benzo[d]imidazole-5-carbonyl)-1-isopropyl-3-methyl-4,6-dihydrospiro[indazole-5,4′-piperidin]-7(1H)-one]
11 | 1660 | 7620 | CC(C)n1nc(C#N)c2c1C(=O)CC1(CCN(C(=O)c3ccc4[nH]cnc4c3)CC1)C2 [Example 8A-1, 1′-(1H-benzo[d]imidazole-5-carbonyl)-1-isopropyl-7-oxo-1,4,6,7-tetrahydrospiro[indazole-5,4′-piperidine]-3-carbonitrile]
12 | 264 | 704 | O=C1CC2(CCN(C(=O)c3ccc4[nH]ncc4c3)CC2)Cc2cnn(C3COC3)c21 [Example 9A-1, 1′-(1H-indazole-5-carbonyl)-1-(oxetan-3-yl)-4,6-dihydrospiro[indazole-5,4′-piperidin]-7(1H)-one]
13 | 22.3 | 43.8 | CC(C)n1ncc2c1C(=O)CC1(CCN(C(=O)c3ccc4[nH]ncc4c3)CC1)C2 [Example 10A-1, 1′-(1H-indazole-5-carbonyl)-1-isopropyl-4,6-dihydrospiro[indazole-5,4′-piperidin]-7(1H)-one]
14 | 31.8 | 147 | CC(C)n1ncc2c1C(=O)CC1(CCN(C(=O)c3ccc(-c4ncc[nH]4)cc3)CC1)C2 [Example 11A-1, 1′-(4-(1H-imidazol-2-yl)benzoyl)-1-isopropyl-4,6-dihydrospiro[indazole-5,4′-piperidin]-7(1H)-one]
15 | 658 | 1480 | Cc1cc(C(=O)N2CCC3(CC2)CC(=O)c2c(cnn2C(C)C)C3)c(N)c(C)n1 [Example 11A-2]
16 | 25.4 | 74.7 | CC(C)n1ncc2c1C(=O)CC1(CCN(C(=O)c3cccc(-c4c[nH]cn4)c3)CC1)C2 [Example 11A-3]

Row | IC50 [1] [nM] | IC50 [2] [nM] | Structure (SMILES)
17 | 5800 | 19600 | Cc1cc(C(=O)N2CCC3(CC2)CC(=O)c2c(cnn2C(C)C)C3)n(-c2cccnc2)n1 [Example 11A-4]
18 | 13200 | 16400 | Cc1cc(C(=O)N2CCC3(CC2)CC(=O)c2c(cnn2C(C)(C)C)C3)n(-c2cccnc2)n1 [Example 11A-5]
19 | 459 | 989 | CC(C)n1ncc2c1C(=O)CC1(CCN(C(=O)c3nn(-c4ccccc4)nc3N)CC1)C2 [Example 11A-6]
20 | 10.4 | 36.8 | CC(C)(C)n1ncc2c1C(=O)CC1(CCN(C(=O)c3cccc(-c4c[nH]cn4)c3)CC1)C2 [Example 11A-7]
21 | 19.7 | 34.4 | CC(C)n1ncc2c1C(=O)CC1(CCN(C(=O)c3ccc4[nH]nc(C#N)c4c3)CC1)C2 [Example 11A-9]
22 | 789 | 6670 | CC(C)n1ncc2c1C(=O)CC1(CCN(C(=O)c3cccnc3C(N)=O)CC1)C2 [Example 11A-10]
23 | 1450 | 10600 | CC(C)(C)n1ncc2c1C(=O)CC1(CCN(C(=O)c3cccnc3C(N)=O)CC1)C2 [Example 11A-11]
24 | 850 | 152 | CC(C)(C)n1ncc2c1C(=O)CC1(CCN(C(=O)c3nn(-c4ccccc4)nc3N)CC1)C2 [Example 11A-12]
25 | 253 | 418 | Cc1cccn2cc(C(=O)N3CCC4(CC3)CC(=O)c3c(cnn3C(C)C)C4)nc12 [Example 11A-14]
26 | 43.8 | 112 | CC(C)n1ncc2c1C(=O)CC1(CCN(C(=O)c3cccc(-c4cc[nH]n4)c3)CC1)C2 [Example 11A-15]
27 | 190 | 621 | Cc1cccn2cc(C(=O)N3CCC4(CC3)CC(=O)c3c(cnn3C(C)(C)C)C4)nc12 [Example 11A-16]
28 | 48.4 | 129 | CC(C)(C)n1ncc2c1C(=O)CC1(CCN(C(=O)c3cccc(-n4cccn4)c3)CC1)C2 [Example 11A-17]
29 | 56.3 | 235 | CC(C)n1ncc2c1C(=O)CC1(CCN(C(=O)c3ccnc(-c4cc[nH]n4)c3)CC1)C2 [Example 11A-18]
30 | 71.6 | 242 | CC(C)(C)n1ncc2c1C(=O)CC1(CCN(C(=O)c3c[nH]c4ncccc34)CC1)C2 [Example 11A-19]
31 | 539 | 1260 | CC(C)(C)n1ncc2c1C(=O)CC1(CCN(C(=O)c3ccc(N4CCOCC4)nc3)CC1)C2 [Example 11A-22]
32 | 20.4 | 87.1 | CC(C)(C)n1ncc2c1C(=O)CC1(CCN(C(=O)c3cccc(-c4cc[nH]n4)c3)CC1)C2 [Example 11A-23]
